In ChEMBL document CHEMBL4402568, “Antiepileptic Drug Carbamazepine Binds to a Novel Pocket on the Wnt Receptor Frizzled-8” (J Med Chem, 2020) one finds Activity and inhibition data, which are given here for two compounds.

Structures are written as SMILES. Calls of active or inactive are those of the source. No cut-off for these calls is given here.

The target in test [1] is Frizzled-8 (Mus musculus) (UniProt Q61091). In words: Binding affinity to immobilized mouse C-terminal Rhinovirus 3C cleavage site-fused 6xHis-tagged Frizzled-8 CRD (Q33 to G173 resideus) transfected with pDisplay_BirA-ER plasmid in HEK293T cells for biotinylation assessed as protein-compound complex formation at 5 to 50 uM by surface plasmon resonance assay.
Test [2] has the same target. To be noted: 8 to 64 uM.
Description: Inhibition of full length mouse Frizzled-8 transfected in Frizzled-1/2/7 knockout HEK293T cells using lentiviral expression system cotransfected with Renilla luciferase assessed as reduction in Wnt3a signaling by measuring luciferase activity at 8 to 64 uM measured after 24 hrs by Dual-Glo luciferase reporter assay
Test [3] concerns the target Frizzled-7 (Homo sapiens) (UniProt O75084). In words: Binding affinity to immobilized human Frizzled-7 CRD (Q33 to G173 resideus) transfected with pDisplay_BirA-ER plasmid in HEK293T cells for biotinylation by surface plasmon resonance assay.
Test [4] deals with Frizzled-5 (Homo sapiens) (UniProt Q13467). In words: Binding affinity to immobilized human Frizzled-5 CRD (P31 to Y150 resideus) transfected with pDisplay_BirA-ER plasmid in HEK293T cells for biotinylation by surface plasmon resonance assay.
Chain of Frizzled-5 (Homo sapiens) (Q13467 whole entry): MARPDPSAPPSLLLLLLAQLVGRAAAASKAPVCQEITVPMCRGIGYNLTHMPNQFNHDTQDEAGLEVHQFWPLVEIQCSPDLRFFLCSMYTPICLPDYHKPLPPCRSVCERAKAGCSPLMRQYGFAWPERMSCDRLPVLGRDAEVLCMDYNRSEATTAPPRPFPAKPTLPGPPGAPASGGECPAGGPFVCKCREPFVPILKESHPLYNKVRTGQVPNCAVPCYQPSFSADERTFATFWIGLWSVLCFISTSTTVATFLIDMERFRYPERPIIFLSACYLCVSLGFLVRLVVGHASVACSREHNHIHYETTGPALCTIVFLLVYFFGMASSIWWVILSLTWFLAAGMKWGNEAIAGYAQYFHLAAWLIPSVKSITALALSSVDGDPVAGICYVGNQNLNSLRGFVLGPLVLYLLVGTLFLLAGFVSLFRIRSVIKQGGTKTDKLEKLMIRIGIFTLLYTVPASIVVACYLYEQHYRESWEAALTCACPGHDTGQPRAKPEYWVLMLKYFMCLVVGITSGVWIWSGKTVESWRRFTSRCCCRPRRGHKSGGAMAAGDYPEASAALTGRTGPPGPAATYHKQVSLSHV

Chain of Frizzled-8 (Mus musculus) (Q61091 whole entry, the tested form may be a part): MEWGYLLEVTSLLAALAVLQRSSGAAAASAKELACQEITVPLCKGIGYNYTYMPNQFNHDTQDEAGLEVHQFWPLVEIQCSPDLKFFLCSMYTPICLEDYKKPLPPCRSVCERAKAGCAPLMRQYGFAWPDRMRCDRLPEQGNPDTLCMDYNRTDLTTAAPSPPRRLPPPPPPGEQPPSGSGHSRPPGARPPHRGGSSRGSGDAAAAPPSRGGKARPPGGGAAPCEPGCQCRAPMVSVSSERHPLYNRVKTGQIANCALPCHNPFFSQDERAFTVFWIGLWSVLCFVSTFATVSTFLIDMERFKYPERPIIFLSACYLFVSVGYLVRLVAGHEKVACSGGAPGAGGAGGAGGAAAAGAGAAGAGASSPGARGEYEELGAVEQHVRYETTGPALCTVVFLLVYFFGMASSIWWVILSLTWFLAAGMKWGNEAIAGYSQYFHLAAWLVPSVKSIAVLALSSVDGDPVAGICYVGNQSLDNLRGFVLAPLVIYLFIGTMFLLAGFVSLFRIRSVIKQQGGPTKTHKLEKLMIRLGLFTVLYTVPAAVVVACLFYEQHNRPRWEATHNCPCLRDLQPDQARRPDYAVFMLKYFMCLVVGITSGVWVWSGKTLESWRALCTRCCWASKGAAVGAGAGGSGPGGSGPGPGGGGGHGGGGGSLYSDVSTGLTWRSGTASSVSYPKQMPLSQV

With `NC(=O)N1c2ccccc2C=Cc2ccccc21`, the result in test [1] was Active. For the same compound, the inhibition result in test [2] was “Active”. Further, the result in test [3] and in test [4] was inactive.
In the case of `CCN(CC)CCCC(C)Nc1c2ccc(Cl)cc2nc2ccc(OC)cc12` (stereo not given), in test [1], the outcome was inactive.
